Results: patent US20240123022A1, “A STABLE ANTI-ANGIOGENIC AND ANTI-INFLAMMATORY PHARMACEUTICAL FORMULATION AND PHARMACEUTICAL COMBINATION FOR TREATMENT AND PREVENTION OF PSORIASIS” (priority 2021, published 2024)

Columns and labels:
HaCaT cells = test: TUNEL assay; type: cell-based, human; conditions: for % increase in TUNEL-Positive cell population w.r.t. control (untreated cells): 48 h
Procedure: Terminal deoxynucleotidyl transferase (TdT) dUTP Nick-End Labeling (TUNEL) assay has been designed to detect apoptotic cells that undergo extensive DNA degradation during the late stages of apoptosis. […] Cells were treated with test item (IS217 of 100 μg/ml-5000 μg/ml) and positive controls like curcumin (10 μM and 20 μM), anthralin (1 μM) and betullininc acid (10 μg/ml, 20 μg/ml, 50 μg/ml). After about 48 hours of treatment, cells were analysed for the apoptotic effect via TUNEL assay. Absorbance was measured using ELISA reader (Table 1).

EA.hy926 cells = test: Induction of DNA fragmentation in human endothelial cell line; type: cell-based
Procedure: EA.hy926 cells, a well reported in vitro model to study the anti-angiogenic potential used for assessing apoptotic effect of IS217 through induction of DNA fragmentation. Cell conditions were maintained using DMEM, about 10% FBS, CO2 incubator and serum starved using 1% FBS. The starved cells were treated with IS217 in the concentrations of 100 μg/ml, 500 μg/ml, 1000 μg/ml, 2000 μg/ml, 5000 μg/ml and incubated for about 48 hours. Anthralin in concentrations of 0.1 μM and 0.5 μM was used as positive control.
The fragmented DNA after lysis was precipitated using PEG/NaCl solution and incubated with 0.2 μg/ml of Hoechst 33258 dye, fluorescence was read at 360 ex/460 em using Biotek synergy HT multimode reader.

JAK-STAT pathway = test: Z′LYTE activity assay, tyrosine kinases; type: biochemical
From the text: (§1) Tyrosine kinases play key role in pathogenesis of psoriasis IS217 was investigated for possible inhibition of various tyrosine kinase, which play crucial role in pathogenesis of psoriasis. The method employed to detect the effect was Z′LYTE activity assay.

MAPK1 (MEK 1) = test: Z′LYTE activity assay, tyrosine kinases; type: biochemical; conditions: 10 μg/ml-250 μg/ml
From the text: as §1

other kinases = test: Z′LYTE activity assay, tyrosine kinases; type: biochemical; conditions: low concentration tested of 10 μg/ml
From the text: as §1

[1] = Pre-formulation stability and maximum feasible concentration; type: physicochemical
Procedure: This study is important in CMC preparation of any drug. The study was conducted to develop suitable pre-formulations of IS217 for four administration routes selected for in vivo studies and to determine maximum concentration of IS217 peptide which is feasible in these pre-formulation i.e., maximum feasible concentration (MFC). Four different aqueous based pre-formulations of IS217 like 10% v/v Tween 20, 20% v/v glycerol, 10% PG v/v in 0.9% NaCl solution and 0.9% NaCl alone were prepared and were first subjected to stability study at intended use of temperature (RT) for about 24 hours. HPLC based assay method was used to evaluate the stability.
Out of these, four aqueous based pre-formulation, 0.9% NaCl solution was selected for intravenous (IV) and intraperitoneal (IP) route and also the aqueous vehicle for co-solvent pre-formulation, based on its stability and suitability at physiological conditions. For subcutaneous (SC)/intramuscular route (IM), a co-solvent-based pre-formulation was developed. 10% propylene glycol (PG) in 0.9% NaCl solution was selected as pre-formulation for SC/IM. Maximum feasible concentration of IS217 in both the pre-formulations was greater than 50 mg/ml.

[2] = system: IMQ induced psoriasis model using Balb/c mice; type: in vivo
Procedure: The experimental procedure and doses and route of administration are same as IMQ model. Test item IS217 was administered subcutaneously to diseased animals at different dose levels of 0.15 mg/kg, 0.30 mg/kg, 0.60 mg/kg, 1.2 mg/kg, 2.4 mg/kg and 4.8 mg/kg.

[3] = system: TPA induced ear inflammation model in C57BL/6 mice; type: in vivo
From the text: The experimental procedure and doses and route of administration are same as IMQ model.

[4] = system: human endothelial cell line (EA.hy926); conditions: EA.hy926, 1-5000 μg/ml, 72 h
Procedure: Here MTT assay and BioTek Synergy HT multimode reader were used to determine the cell viability in test cells. […] Once within about 72 hours of incubation, re-treatment was done for test items at every 24 hours in 3 additions. 150 μl of DMSO was added to aspirated supernatant and observed at 540 nm using BioTek Synergy HT plate reader.

in vitro = conditions: human, microsomes
Procedure: Metabolic stability assay was performed to determine in vitro half-life and intrinsic clearance of test item. […] Following centrifugation, the supernatant was analyzed on HPLC-UV.

Procedure for human plasma proteins: Test item at concentration of about 100 μg/ml was incubated with human plasma at 37° C. in water bath for about 1 hour. About 500 μL of test solution was transferred to ultrafiltration devices and centrifuged for about 15 minutes at about 13000 rpm and at 37° C. and analyzed using HPLC method.

## H-FAKKFAKKFK-OH [IS217, H-Phe-Ala-Lys-Lys-Phe-Ala-Lys-Lys-Phe-Lys-OH]
HaCaT cells; 500 μg/ml
  % increase in TUNEL-Positive cell population w.r.t. control (untreated cells): −25.0%
HaCaT cells; 1000 μg/ml
  % increase in TUNEL-Positive cell population w.r.t. control (untreated cells): −20.4%
HaCaT cells; 2000 μg/ml
  % increase in TUNEL-Positive cell population w.r.t. control (untreated cells): −25.4%
HaCaT cells; 5000 μg/ml
  % increase in TUNEL-Positive cell population w.r.t. control (untreated cells): −40.7%
HaCaT cells; tested concentration range 100-5000 μg/ml, vs untreated
  increase in apoptotic cells (TUNEL positive population): No increase
EA.hy926 cells; EA.hy926, 1000 μg/ml, 48 h
  induction of DNA fragmentation: 24.53%
EA.hy926 cells; EA.hy926, 2000 μg/ml and 5000 μg/ml
  percentage of induction of DNA fragmentation: significant decrease
JAK-STAT pathway
  inhibition of JAK-STAT pathway: No inhibition
MAPK1 (MEK 1)
  inhibition of MAPK1 (MEK 1): good inhibition
Other kinases
  inhibition of other kinases: Moderate to low inhibition
[1]; 0.9% NaCl solution (IV, IP pre-formulation)
  Maximum feasible concentration: greater than 50 mg/ml
[1]; 10% propylene glycol in 0.9% NaCl solution (SC/IM pre-formulation)
  Maximum feasible concentration: greater than 50 mg/ml
[1]; four aqueous pre-formulations, RT, 24 hours
  physical appearance of pre-formulations: no visual changes
[2]; 0.3 mg/kg SC
  inhibition of ear thickness: 36.34%
[2]; IS217 SC 0.15-4.8 mg/kg q.d., 8 days
  psoriatic score PASI and ear punch biopsy: lowering of
[2]; SC 0.15-4.8 mg/kg
  TNF-α level: no trend
[2]; dose level of 0.3 mg/kg SC
  ear thickness (life phase), punch biopsy, cumulative psoriatic scoring and spleen weight: maximum effect
[2]; p < 0.01
  Ear homogenate TNF-α, IL-23, MPO: MPO reduction
[3]; 0.60 mg/kg
  reduction in IL-23 levels in ear tissue homogenate: 42.12%
[3]; 1.2 mg/kg
  maximum ear thickness inhibition: 80.36%
[3]; 1.2 mg/kg SC, conclusion of in vivo studies, model not stated
  MPO levels: significant reduction
[3]; 1.2 mg/kg-4.8 mg/kg
  absolute ear thickness: significant reduction
[3]; IS217 (all doses) < MTX, p < 0.001
  ear thickness (absolute, histopathology, ear punch biopsy): Decreased ear
[3]; p < 0.01
  Ear homogenate ELISA TNF-α, IL-23, IL-6, MPO: MPO reduction
[4]
  percentage inhibition of FBS induced proliferation of endothelial cells: effective upto 2000 μg/ml only
Human plasma proteins
  binding affinity to human plasma proteins: moderate binding affinity
In vitro
  half-life at 100 μg/ml: 47.9 min
  metabolised at 1 h, 100 μg/ml: ~58%
  microsomal CLint at 100 μg/ml: 14.5 µL/min/mg
